Drawing on ChEMBL document CHEMBL4825673, “Total and Semisyntheses of Polymyxin Analogues with 2-Thr or 10-Thr Modifications to Decipher the Structure-Activity Relationship and Improve the Antibacterial Activity” (J Med Chem, 2021), this text covers MIC for 28 compounds.

In brackets after ≈: the same amount, converted by molar mass.

The assay relates to Pseudomonas aeruginosa. The experiment in a line: Antibacterial activity against Pseudomonas aeruginosa PAO1 assessed as inhibition of bacterial growth incubated for 24 hrs by broth microdilution method. As to conditions: read-out: MIC100. The format is functional. A general note: Broth dilution looks for growth in wells or tubes with falling amounts of substance.

Take `CC(C)CCCCC(=O)N[C@@H](CCN)C(=O)N[C@H](C(=O)N[C@@H](CCN)C(=O)N[C@H]1CCNC(=O)[C@H]([C@@H](C)OC(=O)[C@H](C)N)NC(=O)[C@H](CCN)NC(=O)[C@H](CCN)NC(=O)[C@H](CC(C)C)NC(=O)[C@@H](Cc2ccccc2)NC(=O)[C@H](CCN)NC1=O)[C@@H](C)OC(=O)[C@H](C)N`: the MIC worked out at 2 µg/mL (≈ 1.5 µM). Turning to `CC[C@H](C)CCCCC(=O)N[C@@H](CCN)C(=O)N[C@H](C(=O)N[C@@H](CCN)C(=O)N[C@H]1CCNC(=O)[C@H]([C@@H](C)O)NC(=O)[C@H](CCN)NC(=O)[C@H](CCN)NC(=O)[C@H](CC(C)C)NC(=O)[C@@H](Cc2ccccc2)NC(=O)[C@H](CCN)NC1=O)[C@@H](C)OC(=O)[C@@H](N)[C@@H](C)CC`, the MIC came to 2 µg/mL (≈ 1.52 µM). `CC[C@H](C)CCCCC(=O)N[C@@H](CCN)C(=O)N[C@H](C(=O)N[C@@H](CCN)C(=O)N[C@H]1CCNC(=O)[C@H]([C@@H](C)OC(=O)[C@@H]2CCCN2)NC(=O)[C@H](CCN)NC(=O)[C@H](CCN)NC(=O)[C@H](CC(C)C)NC(=O)[C@@H](Cc2ccccc2)NC(=O)[C@H](CCN)NC1=O)[C@@H](C)OC(=O)[C@@H]1CCCN1`: the MIC turned out to be 2 µg/mL (≈ 1.43 µM). `CCCCCCCC(=O)N[C@@H](CCN)C(=O)NCC(=O)N[C@@H](CCN)C(=O)N[C@H]1CCNC(=O)[C@H]([C@@H](C)O)NC(=O)[C@H](CCN)NC(=O)[C@H](CCN)NC(=O)[C@H](CC(C)C)NC(=O)[C@@H](Cc2ccccc2)NC(=O)[C@H](CCN)NC1=O`: the MIC was found to be 64 µg/mL (≈ 55.9 µM). For `CC[C@H](C)CCCCC(=O)N[C@@H](CCN)C(=O)N[C@H](C(=O)N[C@@H](CCN)C(=O)N[C@H]1CCNC(=O)[C@H]([C@@H](C)O)NC(=O)[C@H](CCN)NC(=O)[C@H](CCN)NC(=O)[C@H](CC(C)C)NC(=O)[C@@H](Cc2ccccc2)NC(=O)[C@H](CCN)NC1=O)[C@@H](C)OC(=O)[C@@H](N)[C@@H](C)O`, the MIC turned out to be 2 µg/mL (≈ 1.53 µM).

As for `CC[C@H](C)[C@H](N)C(=O)O[C@H](C)[C@H](NC(=O)[C@H](CCN)NC(=O)CCCCC(C)C)C(=O)N[C@@H](CCN)C(=O)N[C@H]1CCNC(=O)[C@H]([C@@H](C)O)NC(=O)[C@H](CCN)NC(=O)[C@H](CCN)NC(=O)[C@H](CC(C)C)NC(=O)[C@@H](Cc2ccccc2)NC(=O)[C@H](CCN)NC1=O`, the MIC was 2 µg/mL (≈ 1.54 µM). `CC(NCC[C@H](NC(=O)[C@H](CCN)NC(=O)CCCCC(C)C)C(=O)N[C@@H](CCN)C(=O)N[C@H]1CCNC(=O)[C@H]([C@@H](C)O)NC(=O)[C@H](CCN)NC(=O)[C@H](CCN)NC(=O)[C@H](CC(C)C)NC(=O)[C@@H](Cc2ccccc2)NC(=O)[C@H](CCN)NC1=O)=C1C(=O)CC(C)(C)CC1=O`: the MIC worked out at 8 µg/mL (≈ 5.91 µM). With `CC[C@H](C)CCCCC(=O)N[C@@H](CCN)C(=O)N[C@H](C(=O)N[C@@H](CCN)C(=O)N[C@H]1CCNC(=O)[C@H]([C@@H](C)O)NC(=O)[C@H](CCN)NC(=O)[C@H](CCN)NC(=O)[C@H](CC(C)C)NC(=O)[C@@H](Cc2ccccc2)NC(=O)[C@H](CCN)NC1=O)[C@@H](C)OC(=O)[C@H](C)N`, the MIC came to 4 µg/mL (≈ 3.14 µM).

`CC[C@H](C)CCCCC(=O)N[C@@H](CCN)C(=O)N[C@H](C(=O)N[C@@H](CCN)C(=O)N[C@H]1CCNC(=O)[C@H]([C@@H](C)O)NC(=O)[C@H](CCN)NC(=O)[C@H](CCN)NC(=O)[C@H](CC(C)C)NC(=O)[C@@H](Cc2ccccc2)NC(=O)[C@H](CCN)NC1=O)[C@@H](C)OC(=O)[C@@H](N)C(C)C`: the MIC came out at 2 µg/mL (≈ 1.54 µM). `CC(C)CCCCC(=O)N[C@@H](CCN)C(=O)N[C@@H](CCN)C(=O)N[C@@H](CCN)C(=O)N[C@H]1CCNC(=O)[C@H]([C@@H](C)O)NC(=O)[C@H](CCN)NC(=O)[C@H](CCN)NC(=O)[C@H](CC(C)C)NC(=O)[C@@H](Cc2ccccc2)NC(=O)[C@H](CCN)NC1=O`: the MIC is 128 µg/mL (≈ 108 µM). Under `CCCCCCCC(=O)N[C@@H](CCN)C(=O)N[C@@H](CO)C(=O)N[C@@H](CCN)C(=O)N[C@H]1CCNC(=O)[C@H]([C@@H](C)O)NC(=O)[C@H](CCN)NC(=O)[C@H](CCN)NC(=O)[C@H](CC(C)C)NC(=O)[C@@H](Cc2ccccc2)NC(=O)[C@H](CCN)NC1=O` stands 2 µg/mL (≈ 1.7 µM); under `CC(C)CCCCC(=O)N[C@@H](CCN)C(=O)N[C@H](C(=O)N[C@@H](CCN)C(=O)N[C@H]1CCNC(=O)[C@H]([C@@H](C)OC(=O)[C@@H]2CCCN2)NC(=O)[C@H](CCN)NC(=O)[C@H](CCN)NC(=O)[C@H](CC(C)C)NC(=O)[C@@H](Cc2ccccc2)NC(=O)[C@H](CCN)NC1=O)[C@@H](C)OC(=O)[C@@H]1CCCN1`, 2 µg/mL (≈ 1.45 µM); under `CCCCCCCC(=O)N[C@@H](CCN)C(=O)N[C@H](C(=O)N[C@@H](CCN)C(=O)N[C@H]1CCNC(=O)[C@H](CCSC)NC(=O)[C@H](CCN)NC(=O)[C@H](CCN)NC(=O)[C@H](CC(C)C)NC(=O)[C@@H](Cc2ccccc2)NC(=O)[C@H](CCN)NC1=O)[C@@H](C)O`, 4 µg/mL (≈ 3.28 µM). As to `CC(C)CCCCC(=O)N[C@@H](CCN)C(=O)N[C@H](C(=O)N[C@@H](CCN)C(=O)N[C@H]1CCNC(=O)[C@H]([C@@H](C)O)NC(=O)[C@H](CCN)NC(=O)[C@H](CCN)NC(=O)[C@H](CC(C)C)NC(=O)[C@@H](Cc2ccccc2)NC(=O)[C@H](CCN)NC1=O)[C@@H](C)OC(=O)[C@@H](N)[C@@H](C)O`, the MIC is 2 µg/mL (≈ 1.55 µM).

For `CC[C@H](C)CCCCC(=O)N[C@@H](CCN)C(=O)N[C@H](C(=O)N[C@@H](CCN)C(=O)N[C@H]1CCNC(=O)[C@H]([C@@H](C)OC(=O)[C@H](C)N)NC(=O)[C@H](CCN)NC(=O)[C@H](CCN)NC(=O)[C@H](CC(C)C)NC(=O)[C@@H](Cc2ccccc2)NC(=O)[C@H](CCN)NC1=O)[C@@H](C)OC(=O)[C@H](C)N`, the MIC turned out to be 2 µg/mL (≈ 1.49 µM).

With `CC(N[C@@H](CCN)C(=O)N[C@H](C(=O)N[C@@H](CCN)C(=O)N[C@H]1CCNC(=O)[C@H]([C@@H](C)O)NC(=O)[C@H](CCN)NC(=O)[C@H](CCN)NC(=O)[C@H](CC(C)C)NC(=O)[C@@H](Cc2ccccc2)NC(=O)[C@H](CCN)NC1=O)[C@@H](C)O)=C1C(=O)CC(C)(C)CC1=O`, the MIC came to 32 µg/mL (≈ 26.1 µM). For the compound `CCCCCCCC(=O)N[C@@H](CCN)C(=O)N[C@H](C(=O)N[C@@H](CCN)C(=O)N[C@H]1CCNC(=O)[C@H](CC(=O)O)NC(=O)[C@H](CCN)NC(=O)[C@H](CCN)NC(=O)[C@H](CC(C)C)NC(=O)[C@@H](Cc2ccccc2)NC(=O)[C@H](CCN)NC1=O)[C@@H](C)O`, the MIC amounted to 64 µg/mL (≈ 53.2 µM).

On to `CC[C@H](C)CCCCC(=O)N[C@@H](CCN)C(=O)N[C@H](C(=O)N[C@@H](CCN)C(=O)N[C@H]1CCNC(=O)[C@H]([C@@H](C)OC(=O)CN)NC(=O)[C@H](CCN)NC(=O)[C@H](CCN)NC(=O)[C@H](CC(C)C)NC(=O)[C@@H](Cc2ccccc2)NC(=O)[C@H](CCN)NC1=O)[C@@H](C)OC(=O)CN`, for which the MIC worked out at 2 µg/mL (≈ 1.52 µM). For the compound `CC[C@H](C)CCCCC(=O)N[C@@H](CCN)C(=O)N[C@H](C(=O)N[C@@H](CCN)C(=O)N[C@H]1CCNC(=O)[C@H]([C@@H](C)O)NC(=O)[C@H](CCN)NC(=O)[C@H](CCN)NC(=O)[C@H](CC(C)C)NC(=O)[C@@H](Cc2ccccc2)NC(=O)[C@H](CCN)NC1=O)[C@@H](C)OC(=O)[C@@H]1CCCN1`, the MIC turned out to be 2 µg/mL (≈ 1.54 µM). Turning to `CC(C)CCCCC(=O)N[C@@H](CCN)C(=O)N[C@H](C(=O)N[C@@H](CCN)C(=O)N[C@H]1CCNC(=O)[C@H]([C@@H](C)OC(=O)[C@@H](N)CC(=O)O)NC(=O)[C@H](CCN)NC(=O)[C@H](CCN)NC(=O)[C@H](CC(C)C)NC(=O)[C@@H](Cc2ccccc2)NC(=O)[C@H](CCN)NC1=O)[C@@H](C)OC(=O)[C@@H](N)CC(=O)O`, the MIC was 4 µg/mL (≈ 2.82 µM). `CC(C)C[C@@H]1NC(=O)[C@@H](Cc2ccccc2)NC(=O)[C@H](CCN)NC(=O)[C@@H](NC(=O)[C@H](CCN)NC(=O)[C@@H](NC(=O)[C@H](CCN)NC(=O)CCCCCCCN(Cc2ccccn2)Cc2ccccn2)[C@@H](C)O)CCNC(=O)[C@H]([C@@H](C)O)NC(=O)[C@H](CCN)NC(=O)[C@H](CCN)NC1=O`: the MIC was determined as 32 µg/mL (≈ 23.1 µM). As for `CC(C)CCCCC(=O)N[C@@H](CCN)C(=O)N[C@@H](CCC(N)=O)C(=O)N[C@@H](CCN)C(=O)N[C@H]1CCNC(=O)[C@H]([C@@H](C)O)NC(=O)[C@H](CCN)NC(=O)[C@H](CCN)NC(=O)[C@H](CC(C)C)NC(=O)[C@@H](Cc2ccccc2)NC(=O)[C@H](CCN)NC1=O`, the MIC came to 128 µg/mL (≈ 105 µM). In the case of `CC[C@H](C)CCCCC(=O)N[C@@H](CCN)C(=O)N[C@H](C(=O)N[C@@H](CCN)C(=O)N[C@H]1CCNC(=O)[C@H]([C@@H](C)O)NC(=O)[C@H](CCN)NC(=O)[C@H](CCN)NC(=O)[C@H](CC(C)C)NC(=O)[C@@H](Cc2ccccc2)NC(=O)[C@H](CCN)NC1=O)[C@@H](C)OC(=O)[C@@H](N)CC(C)C`, the MIC turned out to be 4 µg/mL (≈ 3.04 µM). Take `CC(C)CCCCC(=O)N[C@@H](CCN)C(=O)N[C@@H](CC(=O)O)C(=O)N[C@@H](CCN)C(=O)N[C@H]1CCNC(=O)[C@H]([C@@H](C)O)NC(=O)[C@H](CCN)NC(=O)[C@H](CCN)NC(=O)[C@H](CC(C)C)NC(=O)[C@@H](Cc2ccccc2)NC(=O)[C@H](CCN)NC1=O`: the MIC came to 64 µg/mL (≈ 53.2 µM). The result for `CC[C@H](C)CCCCC(=O)N[C@@H](CCN)C(=O)N[C@H](C(=O)N[C@@H](CCN)C(=O)N[C@H]1CCNC(=O)[C@H]([C@@H](C)O)NC(=O)[C@H](CCN)NC(=O)[C@H](CCN)NC(=O)[C@H](CC(C)C)NC(=O)[C@@H](Cc2ccccc2)NC(=O)[C@H](CCN)NC1=O)[C@@H](C)OC(=O)[C@@H](N)Cc1c[nH]cn1` reads 2 µg/mL (≈ 1.49 µM); that for `CC[C@H](C)CCCCC(=O)N[C@@H](CCN)C(=O)N[C@H](C(=O)N[C@@H](CCN)C(=O)N[C@H]1CCNC(=O)[C@H]([C@@H](C)O)NC(=O)[C@H](CCN)NC(=O)[C@H](CCN)NC(=O)[C@H](CC(C)C)NC(=O)[C@@H](Cc2ccccc2)NC(=O)[C@H](CCN)NC1=O)[C@@H](C)OC(=O)[C@@H](N)CO`, 1 µg/mL (≈ 0.775 µM).

On to `CC[C@H](C)CCCCC(=O)N[C@@H](CCN)C(=O)N[C@H](C(=O)N[C@@H](CCN)C(=O)N[C@H]1CCNC(=O)[C@H]([C@@H](C)O)NC(=O)[C@H](CCN)NC(=O)[C@H](CCN)NC(=O)[C@H](CC(C)C)NC(=O)[C@@H](Cc2ccccc2)NC(=O)[C@H](CCN)NC1=O)[C@@H](C)OC(=O)[C@@H](N)Cc1c[nH]c2ccccc12`, for which the MIC came out at 2 µg/mL (≈ 1.44 µM). Under `CCCCCCCC(=O)N[C@@H](CCN)C(=O)N[C@@H](CS)C(=O)N[C@@H](CCN)C(=O)N[C@H]1CCNC(=O)[C@H]([C@@H](C)O)NC(=O)[C@H](CCN)NC(=O)[C@H](CCN)NC(=O)[C@H](CC(C)C)NC(=O)[C@@H](Cc2ccccc2)NC(=O)[C@H](CCN)NC1=O` stands 8 µg/mL (≈ 6.71 µM).
